Experimental data as given in US12486218B2, “Compounds advantageous in the treatment of central nervous system diseases and disorders” (AurimMed Pharma, Inc., priority 2008, dated 2025).

Key:
mice [1] = assay: Maximal Electroshock Seizure (MES) test, mice i.p.; format: in vivo; settings: for activity in the MES test: mice
mice [2] = assay: Minimal motor impairment (MID50), mice i.p.; settings: mice i.p.; for MID50, fraction of animals: 100 mg/kg @ 0.5 hr
Description: The animal testing was performed according to methods known in the relevant art.

mice [3] = assay: Subcutaneous Metrazol Seizure threshold (s.c. MET) test, mice i.p.; format: in vivo; settings: for activity in the s.c. MET test: mice
rats [4] = assay: MES test, rats p.o.; format: in vivo; settings: at 30 mg/kg
rats [5] = assay: Pilocarpine-induced Status Epilepticus in Rats (prevention; intervention @ 30 min); settings: Rattus norvegicus
Description: The animal testing was performed using the protocols developed in the Anticonvulsant Screening Program (ASP) at the National Institute of Neurological Disorders and Stroke (NINDS), National Institutes of Health (NIH).

[6] = tested on: rat dopaminergic N27 cells; assay: N27 protection assay against oxidative stress (H2O2 or MPP+; MTT and LDH); format: cell-based; settings: drug 24 hours before 200 μM H2O2 or 640 μM MPP+
Excerpt: FIGS. 20A-25D data are shown illustrating neuroprotective and neuroregenerative effects observed in rat dopaminergic N27 cells. Rat dopaminergic N27 cells are commonly used in in vitro and in vivo model systems for studying Parkinson's disease. Parkinson's disease is a neurodegenerative disorder of the central nervous system that affects more than 6 million people worldwide. The motor symptoms of Parkinson's disease result from the death of dopamine generating cells in the substantia nigra, a region of the midbrain.
The N27 rat dopaminergic neuron cell line was harvested from E12 rat mesencephalic tissue and was transfected with SV40 to immortalize the cell line. The N27 cell line, when injected into the striata of 6-hydroxydopamine-lesioned rats (an animal model of PD) caused a time-dependent improvement in neurological deficits. This immortalized cell line has been carefully characterized in studies of dopamine biosynthesis, neurotoxicity and used as a dopaminergic neuron model studies.
The N27 in vitro Parkinson's disease model included a test of cell viability and cell toxicity in response to exposure to oxidative stress (e.g., either 200 μM H2O2 or 640 μM MPP+).
Cell viability was tested using the MTT assay. The MTT assay is a colorimetric analysis based on the activities of mitochondrial NAD(P)H-dependent cellular oxidoreductase enzymes. These enzymes are capable of reducing the tetrazolium dye, MTT [3-(4,5-dimethylthiazol-2-yl)-2,5-diphenyltetrazolium] bromide, to an insoluble formazan (purple). […] More viable cells equal more accumulation of the insoluble formazan dye.
Cell toxicity was tested using the […] (LDH) assay. Cells that are stressed secrete LDH. In general, the more cells are stressed, the LDH they secrete into their media. The LDH assay is a reliable colorimetric assay to measure quantitatively the […] (LDH) that is released into the cell culture media from damaged cells as a biomarker for cytotoxicity and cytolysis.
FIGS. 20A-25D present data from two types of assays: protection and recovery assays. In the protection assays, the drug candidate was applied to the cells at various concentrations for 24 hours, followed by the exposure to oxidative stress (either 200 μM H2O2 or 640 μM MPP+) for measuring neuroprotective effect. H2O2 provides a broad measure of oxidative stress, while MPP+ gives a more specific oxidative stress to dopaminergic neurons.
The protection assay results are shown in panels A-C of FIGS. 20-25 In the recovery assays, the cells were first damaged by exposure to H2O2 and then various concentrations of the drug were applied to the cells. The results for the recovery assays are shown the D panels of FIGS. 20-25.

[7] = tested on: inclusion of exon 7 in SMN2 mRNAs; assay: Exon 7 inclusion BLA reporter assay in NSC34 cell line; format: cell-based; settings: for effect on the inclusion of exon 7 in SMN2 transcripts / exon 7 test, particularly strong hits: NSC34 exon 7 BLA reporter cells; for Exon 7 inclusion (summary YES/NO): Table 13 summary
Excerpt: To measure changes in the inclusion of exon 7 in SMN2 mRNAs, another NSC34 cell line was used that stably transfected with a reporter construct which expresses BLA when exon 7 is included in the SMN2 minigene mRNAs. 5-(N-ethyl-N-isopropyl)-amiloride (EIPA) was used as a positive control for this assay. Data for tis assay is illustrated in FIG. 30.

mice [8] = assay: 6 Hz (minimal clonic seizure) model, mice i.p.; format: in vivo; settings: for 6 Hz (32 mA), fraction of animals: mice i.p.
SMN2 promoter = SMN2 promoter β-lactamase reporter assay in NSC34 motor neuron-like cells; format: cell-based; settings: for Promoter (SMN2 promoter test, summary YES/NO): Table 13 summary; for SMN2 promoter activity: treatment for 19 hours at a concentration of 1 μM
Description: FIG. 30 illustrates a screen for SMN2 expression of a number of compounds described herein.
SMN2 promoter activity was measured using NSC34 motor neuron-like cells stably transfected with a β-lactamase (BLA) reporter gene under the control of a 3.4-kilobase fragment of the SMN2 promoter. D156844 was used as a positive control for this assay.

mice [9] = assay: Corneal kindled mouse model; format: in vivo; settings: mice i.p.; 100 mg/kg @ 0.25 hr
[10] = read-out: Prevention, Protection
[11] = 0.5 h, read-out: Intervention @ 30 min, Protection

Structure (SMILES): CC(O)(CC(N)=O)c1cccc(C(F)(F)F)c1 (racemic) [CE]
- MES, fraction of animals (mice [1]; mice i.p., 30 mg/kg @ 0.50 hr): 1/1 @
- MID50, fraction of animals (mice [2]): 3/8 @ 0.5 hr,
- s.c. MET, fraction of animals (mice [3]; mice i.p., 30 mg/kg @ 0.5 hr): 1/5 @ 0.5 hr,
- s.c. MET, fraction of animals (mice [3]; mice i.p., 100 mg/kg @ 0.5 hr): 1/1 @ 0.5 hr,

Structure (SMILES): NC(=O)[C@@H]1C[C@H]1c1ccccc1 (relative stereo) [Compound P, trans-2-phenylcyclopropane-1-carboxamide]
- activity in the MES test (mice [1]; at 300 mg/kg): activity
- activity in the MES test (rats [4]): activity
- responders at 450 mg/kg (rats [5]; [10]): 100%

Structure (SMILES): NC(=O)CC1(c2ccc(Cl)cc2)CC1 [AH]
- MES ED50 (mice [1]; mice i.p., @ 0.25 hr): 69.6 mg/kg
- MID50 (TD50) (mice [2]; @ 0.25 hr): 185.73
- neuroprotective effect against H2O2 and MPP+ oxidative stresses (MTT and LDH assays) [6]: statistically significant, dose-dependent neuroprotection
- s.c. MET ED50 (mice [3]; mice i.p., @ 0.25 hr, in mg/kg): 77.98

Structure (SMILES): COc1ccc(C(CC(N)=O)C2CC2)cc1 (stereo not drawn) [AM, 3-Cyclopropyl-3-(4-methoxy-phenyl)-propionamide]
- effect on the inclusion of exon 7 in SMN2 transcripts [7]: positive effect on the inclusion of exon 7
- exon 7 test, particularly strong hits [7]: Particularly strong hits
- Exon 7 inclusion (summary YES/NO) [7]: YES
- MES, fraction of animals (mice [1]; mice i.p., 100 mg/kg @ 0.25 hr): 1/3 @
- activity in the MES test (mice [1]; at 100 mg/kg): activity
- 6 Hz (32 mA), fraction of animals (mice [8]; 100 mg/kg @ 0.25 hr): 1/4
- 6 Hz (32 mA), fraction of animals (mice [8]; 100 mg/kg @ 0.5 hr): 2/4
- 6 Hz (32 mA), fraction of animals (mice [8]; 100 mg/kg @ 1.0 hr): 1/4 @
- activity in the MES test (rats [4]): activity
- responders at 400 mg/kg (rats [5]; [11]): 38%
- responders at 200 mg/kg (rats [5]; [10]): 100%
- SMN2 promoter assay, particularly strong hits (SMN2 promoter; NSC34 BLA reporter cells): Particularly strong hits
- Promoter (SMN2 promoter test, summary YES/NO) (SMN2 promoter): YES
- SMN2 promoter activity (SMN2 promoter): increased SMN2 promoter activity

Structure (SMILES): CC(C)C(CC(N)=O)c1ccc(F)cc1 (stereo not drawn) [AQ, 3-(4-Fluoro-phenyl)-4-methyl-pentanoic acid-amide]
- activity in the MES test (mice [1]; at 100 mg/kg): activity
- activity in the MES test (rats [4]): activity
- responders at 65 mg/kg (rats [5]; [10]): 86%
- SMN2 promoter assay, evidence of activity (may warrant further study) (SMN2 promoter; NSC34 BLA reporter cells): show evidence of activity
- activity in the s.c. MET test (mice [3]; at 300 mg/kg): activity

Structure (SMILES): COc1ccc(C(CC(N)=O)C(C)C)cc1C (stereo not drawn) [AS, 3-(4-Methoxy-3-methyl-phenyl)-4-methylpentanoic acid amide]
- activity in the MES test (mice [1]; at 100 mg/kg): activity
- neuroprotective effect against H2O2 and MPP+ oxidative stresses (MTT and LDH assays) [6]: potent dose-dependent neuroprotective effects
- activity in the MES test (rats [4]): activity
- responders at 200 mg/kg (rats [5]; [10]): 100%
- Promoter (SMN2 promoter test, summary YES/NO) (SMN2 promoter): YES
- SMN2 promoter activity (SMN2 promoter): increased SMN2 promoter activity

Structure (SMILES): CC(CC(=O)N(C)C)c1ccc(OC(F)(F)F)cc1 (stereo not drawn) [BD, N,N-Dimethyl-3-(4-trifluoromethoxy-phenyl)-butyramide]
- MES, fraction of animals (mice [1]; mice i.p., 100 mg/kg @ 0.5 hr): 1/1 @
- activity in the MES test (mice [1]; at 100 mg/kg): activity
- MID50, fraction of animals (mice [2]): 4/8 @ 0.5 hrs,
- 6 Hz (32 mA), fraction of animals (mice [8]; 100 mg/kg @ 2.0 hr): 2/4 @ 0.5,
- activity in the s.c. MET test (mice [3]; at 300 mg/kg): activity

Structure (SMILES): CC(CC(=O)N1CCCC1)c1ccc(OC(F)(F)F)cc1 (stereo not drawn) [BG, 1-Pyrrolidin-1-yl-3-(4-trifluoromethoxy-phenyl)-butan-1-one]
- MES, fraction of animals (mice [1]; mice i.p., 100 mg/kg @ 0.5 hr): 1/3 @
- activity in the MES test (mice [1]; at 100 mg/kg): activity
- activity in the MES test (rats [4]): activity

Structure (SMILES): CC(CC(N)=O)c1ccccc1OC(F)(F)F (stereo not drawn) [BU, 3-[2-(trifluoromethoxy)-phenyl]butyramide]
- effect on the inclusion of exon 7 in SMN2 transcripts [7]: positive effect on the inclusion of exon 7
- exon 7 test, particularly strong hits [7]: Particularly strong hits
- Exon 7 inclusion (summary YES/NO) [7]: YES
- MES, fraction of animals (mice [1]; mice i.p., 100 mg/kg @ 0.5 hr): 3/3
- MES, fraction of animals (mice [1]; mice i.p., 100 mg/kg @ 4.0 hr): 2/3
- activity in the MES test (mice [1]; at 100 mg/kg): activity
- MID50, fraction of animals (mice [2]): 5/8 @
- responders at 127 mg/kg (rats [5]; [11]): 50%
- responders at 65 mg/kg (rats [5]; [10]): 100%
- SMN2 promoter assay, particularly strong hits (SMN2 promoter; NSC34 BLA reporter cells): Particularly strong hits
- Promoter (SMN2 promoter test, summary YES/NO) (SMN2 promoter): YES
- SMN2 promoter activity (SMN2 promoter): increased SMN2 promoter activity

Structure (SMILES): CC(CC(N)=O)c1ccc(Cl)cc1 (stereo not drawn) [BV, 3-[4-chloro-phenyl]butyramide]
- MES, fraction of animals (mice [1]; mice i.p., 100 mg/kg @ 0.5 hr): 2/3 @
- activity in the MES test (mice [1]; at 100 mg/kg): activity
- activity in the MES test (rats [4]): activity

Structure (SMILES): CNC(=O)CC(C)(C)c1ccc(Cl)cc1 [Compound B, 3-(4-Chlorophenyl)-3,N-dimethylbutyramide]
- MID50, fraction of animals (mice [2]): 2/8 @0.5 hr
- neuroprotective effect against H2O2 and MPP+ oxidative stresses (MTT and LDH assays) [6]: potent dose-dependent neuroprotective effects
- responders at 300 mg/kg (rats [5]; [10]): 43%

Structure (SMILES): NC(=O)CC(c1ccc(Cl)cc1)C1CC1 (stereo not drawn) [X, 3-(4-Chloro-phenyl)-3-cyclopropyl-propionamide]
- activity in the MES test (mice [1]; at 100 mg/kg): activity
- Corneal Kindled, Average seizure score (mice [9]): score is 3:
- Corneal Kindled, fraction of animals (mice [9]): 2/4 @
- 6 Hz (32 mA), fraction of animals (mice [8]; 75 mg/kg @ 1.0 hr): 4/4
- 6 Hz (32 mA), fraction of animals (mice [8]; 75 mg/kg @ 2.0 hr): 2/4
- 6 Hz (32 mA), fraction of animals (mice [8]; 75 mg/kg @ 4.0 hr): 1/4 @
- neuroprotective effect against H2O2 and MPP+ oxidative stresses (MTT and LDH assays) [6]: statistically significant, dose-dependent neuroprotection
- activity in the MES test (rats [4]): activity
- Promoter (SMN2 promoter test, summary YES/NO) (SMN2 promoter): YES
- SMN2 promoter activity (SMN2 promoter): increased SMN2 promoter activity
- activity in the s.c. MET test (mice [3]; at 300 mg/kg): activity

Structure (SMILES): NC(=O)CC(c1ccc(F)cc1)C1CC1 (stereo not drawn) [Y, 3-Cyclopropyl-3-(4-fluoro-phenyl)propionamide]
- activity in the MES test (mice [1]; at 100 mg/kg): activity
- Corneal Kindled, Average seizure score (mice [9]): 0: (0, 0,
- Corneal Kindled, fraction of animals (mice [9]): 4/4 @
- activity in the 6 Hz (minimal clonic seizure) model (mice [8]; mice, at 100 mg/kg): activity
- responders at 65 mg/kg (rats [5]; [10]): 88%
- SMN2 promoter activity (SMN2 promoter): increased SMN2 promoter activity
- s.c. MET, fraction of animals (mice [3]; mice i.p., 100 mg/kg @ 0.5 hr): 2/5 @0.5 hrs,
- activity in the s.c. MET test (mice [3]; at 100 mg/kg): activity
